Source: patent US11692167B2, “Chemically defined serum replacements for cell culture” (Montana State University, priority 2021, dated 2023)

Experiments:
[1] = tested on: HFF cells; assay: Design of Experiments two-factor interaction on HFF cells (cell numbers/mL); assay type: cell-based, human; details: culture for 5 days
From the text: Optimization of mixes is achieved using Design of Experiments (DoE) computer-based design and analysis protocols. Experiments are computer designed according to number of variables to test, and serial dilutions of those variables. Results are able to indicate two factor interactions. […] This enables the optimization of many interdependent nutrients using maxima and repeat application. […] Vertical axes reflect cell numbers/mL after culture for 5 days. Horizontal axes correspond to increasing concentration of indicated lipids.

[2] = spectrophotometric assay using phenolphthalein indicator to determine complexation efficiency of lipids with cyclodextrins; assay type: physicochemical; details: extrapolated from free phenolphthalein absorbance
Description: Solubilized lipids were evaluated by spectrophotometric assay using Phenolphthalein, which is known to occupy the complexing reagents used for five hydrophobic nutrients used in chemically defined mixes. Phenolphthalein is known to be displaced from the reagent when a hydrophobic moiety is complexed, so the concentration of occupied reagents was extrapolated from coloration indicating concentration of free phenolphthalein in solution when a known amount of solubilized nutrient was dosed with a known quantity of Phenolphthalein. […] Phenolphthalein is colored when free in solution at pH 8+. It readily complexes with cyclodextrins of all types and is colorless when complexed. It is preferentially displaced by more hydrophobic molecules, so when added to a known concentration of complexed lipids, the absorbance can determine how much free phenolphthalein is present, and therefore how many free cyclodextrins are present. Since the stoichiometry of mixing is 1:1, the concentration of cyclodextrins that are free to interact with Phenolphthalein logically equals the concentration of free lipid in solution.

Row | Structure (SMILES) | two-factor interaction with PT (palmitate) on cell numbers/mL ([1]; FIG. 8A) | two-factor interaction with α linolenic acid (ALA) on cell numbers/mL ([1]; FIG. 8B) | free lipid concentration in solution relative to critical micelle concentration (literature level) [2]
1 | CCCCCC/C=C\CCCCCCCC(=O)O [PA, palmitoleic acid] | agonistic relationship | antagonist relationship | –
2 | CCCCCCCC/C=C\CCCCCCCC(=O)O [oleic acid] | – | – | greater than the literature level
